Laboratory results published in BindingDB's records for doi:10.1080/14756360701342532 (Chinese Academy of Medical Sciences, 2008).
pIC50: −log10 of the molar value.

Target: T1, Seed linoleate 13S-lipoxygenase-1 (Glycine max, UniProt P08170)
T1 sequence (P08170 whole entry): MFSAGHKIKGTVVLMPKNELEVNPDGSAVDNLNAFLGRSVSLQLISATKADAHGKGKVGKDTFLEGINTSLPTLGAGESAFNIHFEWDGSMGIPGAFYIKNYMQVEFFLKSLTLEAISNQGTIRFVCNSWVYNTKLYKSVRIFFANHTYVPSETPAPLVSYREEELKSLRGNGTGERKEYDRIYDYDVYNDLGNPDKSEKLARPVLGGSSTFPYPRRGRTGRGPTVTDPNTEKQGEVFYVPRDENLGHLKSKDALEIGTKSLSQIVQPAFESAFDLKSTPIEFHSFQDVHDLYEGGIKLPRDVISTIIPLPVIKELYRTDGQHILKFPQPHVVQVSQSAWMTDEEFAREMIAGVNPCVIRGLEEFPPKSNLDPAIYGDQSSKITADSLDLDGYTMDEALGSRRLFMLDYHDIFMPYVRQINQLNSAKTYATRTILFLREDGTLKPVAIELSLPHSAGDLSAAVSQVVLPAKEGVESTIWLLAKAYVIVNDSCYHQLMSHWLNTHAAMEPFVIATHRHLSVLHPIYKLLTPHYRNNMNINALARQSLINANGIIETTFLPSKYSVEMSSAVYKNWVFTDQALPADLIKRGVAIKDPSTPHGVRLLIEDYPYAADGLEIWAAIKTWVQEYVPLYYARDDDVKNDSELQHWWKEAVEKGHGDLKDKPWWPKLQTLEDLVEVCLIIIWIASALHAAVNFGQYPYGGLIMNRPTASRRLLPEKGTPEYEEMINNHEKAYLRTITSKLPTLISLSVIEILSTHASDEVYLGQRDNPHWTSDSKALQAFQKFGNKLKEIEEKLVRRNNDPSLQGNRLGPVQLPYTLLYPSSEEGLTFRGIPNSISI
Assay: Inhibition Assay
Conditions: pH 8; 25 °C
Method: Lipoxygenase inhibiting activity was measured by slightly modifying the spectrometric method. Lipoxygenase type I-B and linoleic acid were purchased from Sigma.

SMILES	pIC50
O=C(OCC1=C[C@@H](O)[C@@H]2C=CO[C@@H](OC3OC(CO)C(O)C(O)C3O)[C@H]12)c1ccc(O)cc1 (some centres not stated) [Buddlejoside A, 1]	4.35
COc1ccc(/C=C/C(=O)OC2C(C)OC(O[C@@H]3C=C(CO)C4C3C=CO[C@H]4OC3OC(CO)C(O)C(O)C3O)C(OC(C)=O)C2O)cc1 (some centres not stated) [Buddlejoside A2, 6]	4.38
CC(C)CC(=O)OCC1=C[C@@H](O)[C@@H]2C=CC[C@H](OC3OC(CO)C(O)C(O)C3O)[C@H]12 (some centres not stated) [Buddlejoside C, 3]	4.28
COc1ccc(/C=C/C(=O)OC2C(O)C(C)OC(O[C@H]3C4C=CO[C@@H](OC5OC(CO)C(O)C(O)C5O)C4[C@@]4(CO)O[C@@H]34)C2OC(C)=O)cc1 (some centres not stated) [Buddlejoside A5, 7]	4.39
COC(=O)[C@@H]1C2C=C[C@@]3(O)CO[C@@H](O[C@@H]1O)C23 (stereo partly drawn) [Beta-gardiol, 5]	4.33
COC(=O)C1=CO[C@@H](O)C2C(CO)C=CC12 (some centres not stated) [Genipin, 4]	4.30
O=C(OCC1=C[C@@H](O)[C@@H]2C=CO[C@@H](OC3OC(CO)C(O)C(O)C3O)[C@H]12)c1ccc(O)c(O)c1 (some centres not stated) [Buddlejoside B, 2]	4.40
